In article PMC8998611, “Identification of Novel GSK-3β Hits Using Competitive Biophysical Assays” (International Journal of Molecular Sciences, 2022):

Key:
GSK-3β [1] = biological target: T1, GSK-3β (Homo sapiens, UniProt P49841); assay: Thermal shift assay with SYPRO Orange; format: binding; parameters: made in house; host or cells: Sf9 cells; settings: GSK-3β 5 μM; normalized to DMSO effect
Protocol: Given the poor inhibitory activity of compounds B3 and E2, only G5 and G12 were selected for further biophysical and structural investigations. […] A Tm increase of 3.2 °C and 2.5 °C was observed upon binding of G5 and G12, respectively. Reported effects were compared and normalized to the effect induced by DMSO alone on GSK-3β denaturation. The same experiments were also performed in the presence of AMP-PNP to unravel a possible effect of this molecule on protein denaturation.
Thermal shift experiments were conducted in technical triplicates and recorded with a ViiA7^TM real-time PCR instrument. The analysis protocol of Partch and colleagues developed for fast stability screening of buffers and interactors for recombinant proteins was followed, [42]. Briefly, the recombinant protein GSK-3β at a final concentration of 5 μM was mixed with the dye SYPRO Orange (2× final concentrated) in the selected assay buffer (NaCl 300 mM, Hepes pH 7.5 20 mM, MgCl2 5 mM, DTT 1 mM) and incubated with hit compounds at two different concentrations, 200 and 500 μM. Experiments were also performed on GSK-3β also in the presence of AMP-PNP at a final concentration of 200 μM. […]
Output data were collected and analyzed with Excel software and Graphpad Prism 7.

GSK-3β [2] = biological target: T1, GSK-3β; assay: 19F T2 filter NMR ligand-based binding experiments; parameters: made in house; host or cells: Sf9 cells; settings: in presence of GSK-3β and 1 mM or 3 mM AMP-PNP
Protocol: GSK-3β was pre-incubated at room temperature for 10 min in the presence of 1 mM AMP-PNP before addition to the mixtures. […] On the contrary, NMR signals of the non-binding molecules were not affected by the presence of the target protein. Molecules selected from this first NMR screening were then tested as a single compound under the same screening conditions in the presence of two non-binding compounds as negative controls. The promising compounds, still showing binding to GSK-3β when tested as singles, were retested also in the presence of 3 mM AMP-PNP (among these, G5 and G12, whose NMR spectra are reported in Figure 2a,b, respectively). […] These hits were then further analyzed and characterized through different biophysical approaches.
All NMR screening experiments were recorded at 298 K with a Bruker FT NMR Avance III 600 MHz spectrometer, equipped with a 5 mm CryoProbe™ QCI ^1H/^19F–^13C/^15N–D with an automatic sample changer SampleJet™ with temperature control. All GSK-3β experiments were performed at low enzyme concentration (750 nM/1 μM) in 60 mM Hepes pH 7.5, 25 mM NaCl, 10 mM MgCl2, 2 mM TCEP, 8% D2O (for lock signal), 0.003% Triton X-100 (for the coating of NMR tube wall). […]

LOK1 = biological target: T2, LOK1 (Homo sapiens, UniProt O94804); assay: Eurofins Kinase Diversity Panel, LOK1; format: biochemical; settings: 20 µM compound; ATP at Km ± 15 µM; read-out: inhibitory effect on LOK1
T2 construct: purchased Eurofins (Kinase Diversity Panel service)
Protocol: (§1) To further characterize the inhibitory activity of the two selected fragments, the selectivity of G5 and G12 towards a panel of 58 kinases of the humane proteome was evaluated using the “Kinase screening and profiling” service of Eurofins, Luxembourg (Kinase Diversity Panel). […] Results are reported in Supplementary Figures S2 and S3.

GSK-3β [3] = biological target: T1, GSK-3β; assay: GSK-3β kinetics, Lineweaver-Burk analysis of competition with ATP or substrate ULight-GS; format: biochemical; parameters: made in house; host or cells: Sf9 cells; settings: compound 20 and 50 μM; for mechanism of inhibition with respect to substrate ULight-GS: ATP 1 μM, ULight-GS 12.5-200 nM; for mechanism of inhibition with respect to ATP: ATP 0.25-4 μM, ULight-GS 50 nM
Protocol: First, under a constant concentration of the substrate ULight-GS (50 nM), ATP concentrations were varied from 0.25 to 4 μM, and G5 and G12 were tested at 20 and 50 μM. […] Additionally, G5 and G12 (at 20 and 50 μM) were tested by keeping the ATP concentration constant (1 μM) and varying the substrate ULight-GS concentration from 12.5 to 200 nM.
To study the GSK-3β kinetics, the reaction mixture, varying concentrations of ATP (0.25–0.5–1–2–4 μM) or substrate (12.5–25–50–100–200 nM) versus test samples (20 and 50 μM), were incubated for 5, 15, 30, and 60 min at 23 °C, followed by the addition of the 6 mM EDTA and the anti-phospho-GS antibody according to the manufacturer’s protocol.
For GSK-3β kinetic experiments, initial velocities (V0) were determined and fitted to the Michaelis–Menten equation. To directly visualize G5 and G12 inhibition mode, a Lineweaver–Burk plot was generated according to the values obtained from the Michaelis–Menten analysis. […] Graphs and data analysis were performed using GraphPad Prism 8 software.

ABL = biological target: T3, ABL (Homo sapiens, UniProt P00519); assay: Eurofins Kinase Diversity Panel, ABL; format: biochemical; settings: 20 µM compound; ATP at Km ± 15 µM
T3 construct: purchased Eurofins (Kinase Diversity Panel service)
Protocol: as §1

CDK9 = biological target: T4, CDK9 (Homo sapiens, UniProt P50750); assay: Eurofins Kinase Diversity Panel, CDK9; format: biochemical; settings: 20 µM compound; ATP at Km ± 15 µM; read-out: inhibitory effect on CDK9
T4 construct: purchased Eurofins (Kinase Diversity Panel service)
Protocol: as §1

MLK1 = biological target: T5, MLK1 (Homo sapiens, UniProt P80192); assay: Eurofins Kinase Diversity Panel, MLK1; format: biochemical; settings: 20 µM compound; ATP at Km ± 15 µM
T5 construct: purchased Eurofins (Kinase Diversity Panel service)
Protocol: as §1

T1 sequence (P49841 whole entry): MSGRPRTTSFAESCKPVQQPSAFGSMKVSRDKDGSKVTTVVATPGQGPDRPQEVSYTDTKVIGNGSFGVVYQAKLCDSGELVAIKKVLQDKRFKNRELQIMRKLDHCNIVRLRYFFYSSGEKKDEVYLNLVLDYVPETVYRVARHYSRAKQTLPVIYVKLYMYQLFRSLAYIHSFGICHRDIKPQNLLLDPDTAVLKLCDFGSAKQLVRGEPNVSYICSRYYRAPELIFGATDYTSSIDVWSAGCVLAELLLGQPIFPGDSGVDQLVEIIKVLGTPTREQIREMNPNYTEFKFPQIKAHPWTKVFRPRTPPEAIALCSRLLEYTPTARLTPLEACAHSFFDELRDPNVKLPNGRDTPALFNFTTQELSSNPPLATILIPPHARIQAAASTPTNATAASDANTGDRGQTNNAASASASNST
T4 sequence (P50750 whole entry): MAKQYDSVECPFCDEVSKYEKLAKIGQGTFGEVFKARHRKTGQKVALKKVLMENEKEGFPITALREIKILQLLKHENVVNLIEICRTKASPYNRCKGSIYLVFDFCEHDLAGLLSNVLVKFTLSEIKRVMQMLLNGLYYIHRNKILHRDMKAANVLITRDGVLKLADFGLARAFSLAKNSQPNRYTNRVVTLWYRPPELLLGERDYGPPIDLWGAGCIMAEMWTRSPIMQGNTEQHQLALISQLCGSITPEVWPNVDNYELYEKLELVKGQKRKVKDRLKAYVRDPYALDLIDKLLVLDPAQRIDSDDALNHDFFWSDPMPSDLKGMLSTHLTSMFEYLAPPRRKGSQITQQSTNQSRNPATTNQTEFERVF
T4 sequence (O60563 whole entry partner): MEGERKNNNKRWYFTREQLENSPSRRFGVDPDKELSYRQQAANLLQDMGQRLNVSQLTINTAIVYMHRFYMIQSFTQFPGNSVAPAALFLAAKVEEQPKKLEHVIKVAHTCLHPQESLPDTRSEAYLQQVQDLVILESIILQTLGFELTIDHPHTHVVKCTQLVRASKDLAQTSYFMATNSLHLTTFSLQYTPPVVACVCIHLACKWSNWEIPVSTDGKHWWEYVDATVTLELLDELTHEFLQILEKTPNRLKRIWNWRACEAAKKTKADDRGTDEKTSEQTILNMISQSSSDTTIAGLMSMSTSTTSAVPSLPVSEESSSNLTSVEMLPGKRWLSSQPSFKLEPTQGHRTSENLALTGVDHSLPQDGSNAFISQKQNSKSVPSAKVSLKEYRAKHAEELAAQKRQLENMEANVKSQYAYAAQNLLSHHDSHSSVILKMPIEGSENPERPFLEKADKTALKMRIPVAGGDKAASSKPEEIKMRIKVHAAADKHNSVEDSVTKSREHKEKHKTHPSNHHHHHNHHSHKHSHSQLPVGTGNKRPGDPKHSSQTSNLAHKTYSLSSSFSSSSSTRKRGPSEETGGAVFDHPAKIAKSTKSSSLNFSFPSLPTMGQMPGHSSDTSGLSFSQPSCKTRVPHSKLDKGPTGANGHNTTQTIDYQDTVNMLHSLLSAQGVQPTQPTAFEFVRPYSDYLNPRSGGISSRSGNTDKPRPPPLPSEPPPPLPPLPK
T2 sequence (O94804 whole entry): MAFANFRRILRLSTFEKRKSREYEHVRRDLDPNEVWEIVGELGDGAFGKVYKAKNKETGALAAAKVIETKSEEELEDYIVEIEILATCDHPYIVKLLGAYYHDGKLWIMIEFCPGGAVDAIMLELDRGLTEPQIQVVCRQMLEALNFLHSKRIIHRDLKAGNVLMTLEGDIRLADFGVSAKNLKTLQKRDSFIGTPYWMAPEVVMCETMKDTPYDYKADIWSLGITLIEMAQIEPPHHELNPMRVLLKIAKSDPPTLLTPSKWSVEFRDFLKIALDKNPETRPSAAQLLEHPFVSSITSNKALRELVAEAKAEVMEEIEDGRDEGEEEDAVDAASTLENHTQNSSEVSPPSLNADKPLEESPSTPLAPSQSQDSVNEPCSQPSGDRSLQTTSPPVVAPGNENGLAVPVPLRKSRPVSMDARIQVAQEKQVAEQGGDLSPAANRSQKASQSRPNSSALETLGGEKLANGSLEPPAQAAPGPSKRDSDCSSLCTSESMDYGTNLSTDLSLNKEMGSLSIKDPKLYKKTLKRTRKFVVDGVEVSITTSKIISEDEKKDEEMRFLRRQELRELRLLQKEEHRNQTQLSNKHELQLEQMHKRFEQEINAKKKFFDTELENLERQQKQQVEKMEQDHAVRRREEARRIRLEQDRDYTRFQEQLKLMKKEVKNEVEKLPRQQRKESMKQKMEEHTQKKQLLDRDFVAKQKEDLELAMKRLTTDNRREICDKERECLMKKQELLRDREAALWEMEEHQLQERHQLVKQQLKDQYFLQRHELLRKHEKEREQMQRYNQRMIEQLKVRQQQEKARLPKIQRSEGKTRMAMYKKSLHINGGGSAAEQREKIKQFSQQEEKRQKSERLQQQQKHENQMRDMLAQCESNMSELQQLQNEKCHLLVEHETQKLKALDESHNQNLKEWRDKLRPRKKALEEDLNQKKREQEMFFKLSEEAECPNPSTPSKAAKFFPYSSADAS
T3 sequence (P00519 whole entry): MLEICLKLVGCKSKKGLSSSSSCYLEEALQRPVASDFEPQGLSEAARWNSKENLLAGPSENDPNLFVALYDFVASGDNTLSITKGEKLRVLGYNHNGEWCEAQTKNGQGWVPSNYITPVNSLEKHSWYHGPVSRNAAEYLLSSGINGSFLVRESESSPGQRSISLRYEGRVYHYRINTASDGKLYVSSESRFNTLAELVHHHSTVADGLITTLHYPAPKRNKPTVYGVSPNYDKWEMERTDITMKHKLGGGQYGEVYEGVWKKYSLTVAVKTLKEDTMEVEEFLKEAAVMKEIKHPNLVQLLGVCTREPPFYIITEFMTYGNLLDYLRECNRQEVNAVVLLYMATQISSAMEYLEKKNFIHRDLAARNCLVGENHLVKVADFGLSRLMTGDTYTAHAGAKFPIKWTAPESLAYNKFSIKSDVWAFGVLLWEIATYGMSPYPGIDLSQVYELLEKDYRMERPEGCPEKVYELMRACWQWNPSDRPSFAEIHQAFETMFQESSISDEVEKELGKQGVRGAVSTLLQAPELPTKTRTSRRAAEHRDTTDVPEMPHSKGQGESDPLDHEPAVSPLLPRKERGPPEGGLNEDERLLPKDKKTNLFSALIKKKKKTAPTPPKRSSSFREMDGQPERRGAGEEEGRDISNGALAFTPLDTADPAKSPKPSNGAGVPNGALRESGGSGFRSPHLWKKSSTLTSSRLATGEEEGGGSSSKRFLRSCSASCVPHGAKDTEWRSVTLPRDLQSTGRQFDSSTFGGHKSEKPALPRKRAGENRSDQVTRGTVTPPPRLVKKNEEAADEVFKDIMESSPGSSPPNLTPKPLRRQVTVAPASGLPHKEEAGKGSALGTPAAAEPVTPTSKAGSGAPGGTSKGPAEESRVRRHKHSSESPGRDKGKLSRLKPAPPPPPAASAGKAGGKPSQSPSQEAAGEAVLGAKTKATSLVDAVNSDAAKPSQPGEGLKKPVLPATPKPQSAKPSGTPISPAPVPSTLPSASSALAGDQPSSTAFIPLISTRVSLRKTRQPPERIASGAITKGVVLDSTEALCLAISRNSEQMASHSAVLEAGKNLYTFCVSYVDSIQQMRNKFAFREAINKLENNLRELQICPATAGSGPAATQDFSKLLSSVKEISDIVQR
T5 sequence (P80192 whole entry): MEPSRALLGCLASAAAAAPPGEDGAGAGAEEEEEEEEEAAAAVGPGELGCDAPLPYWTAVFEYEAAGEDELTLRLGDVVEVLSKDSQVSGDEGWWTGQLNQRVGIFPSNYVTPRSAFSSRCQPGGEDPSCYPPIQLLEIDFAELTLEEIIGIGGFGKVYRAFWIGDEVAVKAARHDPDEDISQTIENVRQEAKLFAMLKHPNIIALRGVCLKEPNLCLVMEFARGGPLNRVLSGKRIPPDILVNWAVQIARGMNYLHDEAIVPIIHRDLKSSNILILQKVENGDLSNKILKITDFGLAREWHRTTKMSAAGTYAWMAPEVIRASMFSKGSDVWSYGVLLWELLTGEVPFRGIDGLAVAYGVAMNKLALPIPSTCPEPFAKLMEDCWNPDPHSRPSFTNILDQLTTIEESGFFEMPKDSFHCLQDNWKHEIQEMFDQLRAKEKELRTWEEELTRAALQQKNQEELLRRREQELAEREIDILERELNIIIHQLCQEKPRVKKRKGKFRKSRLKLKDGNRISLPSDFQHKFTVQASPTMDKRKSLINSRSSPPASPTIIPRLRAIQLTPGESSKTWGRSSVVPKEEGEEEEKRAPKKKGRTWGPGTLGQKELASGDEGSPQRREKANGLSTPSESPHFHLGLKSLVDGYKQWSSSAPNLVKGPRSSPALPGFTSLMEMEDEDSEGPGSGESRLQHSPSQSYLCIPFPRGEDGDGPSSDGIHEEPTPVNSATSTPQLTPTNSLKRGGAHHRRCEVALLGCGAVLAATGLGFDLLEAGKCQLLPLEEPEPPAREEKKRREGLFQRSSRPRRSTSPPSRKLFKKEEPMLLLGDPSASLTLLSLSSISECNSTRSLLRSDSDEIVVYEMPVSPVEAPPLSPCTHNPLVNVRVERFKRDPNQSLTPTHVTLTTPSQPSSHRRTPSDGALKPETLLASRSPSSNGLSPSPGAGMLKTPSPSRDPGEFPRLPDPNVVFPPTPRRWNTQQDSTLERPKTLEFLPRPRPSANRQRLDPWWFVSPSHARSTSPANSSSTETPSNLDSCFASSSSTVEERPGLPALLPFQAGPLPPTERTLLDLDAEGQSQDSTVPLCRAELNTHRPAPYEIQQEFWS

Row | SMILES | Tm increase upon binding (GSK-3β [1]) [°C] | binding by 19F T2 filter NMR (line broadening of signal) (GSK-3β [2]) | inhibition at 20 µM (LOK1) [%] | mechanism of inhibition with respect to substrate ULight-GS (GSK-3β [3]) | mechanism of inhibition with respect to ATP (GSK-3β [3]) | inhibitory effect on ABL (ABL) | inhibition at 20 µM (CDK9) [%] | inhibitory effect on MLK1 (MLK1)
1 | CS(=O)(=O)N1CC(c2nc(N)ncc2-c2ccc(F)cc2)C1 [G5] | 3.2 | strong line broadening | 21 | mixed competition mechanism | ATP competitive |  |  | 
2 | O=C(Nc1ccccn1)C1CCN(C(=O)CCc2ccccc2F)C1 (stereo not drawn) [G12] | 2.5 | strong line broadening |  | did not compete with the substrate | ATP competitive | no inhibitory effect | 50 | no inhibition
